These are literature values, as cited in US8288413B2, “Benzimidazolones which have activity at M1 receptor” (Glaxo Group Limited, priority 2005, dated 2012).

In series [1] the test system is rats.
The subject of series [2] is mice.
Series [3] concerns unilateral 6-OH-DA lesioned rats.
Series [4] has as its system monkeys.
Series [5] has as its system dopamine cell firing.
For series [6] the following is noted: in vivo.
Series [7] relates to c-fos expression. The following applies: rats.
The subject of series [8] is Alzheimer's patients.

As for `CCCCCCOc1nsnc1C1=CCCN(C)C1` [xanomeline], in series [1], the amphetamine induced locomotion entry is “reverses”. Besides, the apomorphine induced climbing entry in series [2] is “reverses”. The “dopamine agonist driven turning” value in series [3] is “reverses”. In addition, in series [4], the EPS liability result is on record as “without EPS liability” and the amphetamine-induced motor unrest result is reported as “reverses”. Besides, the “A9 dopamine cell firing” value in series [5] (A9) is recorded as “not A9”. Also, the “A10 dopamine cell firing” value in series [5] (A10) was “inhibit”. Also, in series [6], the conditioned avoidance entry is given as “inhibit”. In series [7], the “c-fos expression in prefrontal cortex and nucleus accumbens” value is recorded as “induces”; the “c-fos expression in striatum” value is “not in striatum”. Besides, the “psychotic symptoms such as suspiciousness, hallucinations and delusions” value in series [8] (Alzheimer's patients) was “reduce”. The side effects result in series [8] (clinical use) is recorded as “dose-limiting peripheral cholinergic side effects”.
